Assays:
SET2 xenografts = assay: In vivo efficacy on SET2 tumor xenografts; settings: Nude mice; 1.5, 5 and 15 mg/kg p.o. QD; 14 days of dosing
Experimental: FIG. 12 illustrates the in vivo efficacy of GSK2879552 on SET2 xenografts. […] Tumor-bearing animals were treated with 3 different dose levels of the KDM1A inhibitor: 1.5 mg/kg, 5 mg/kg, and 15 mg/kg administered orally (p.o.) on a daily schedule (QD). […] Top right panel indicates body weight changes determined in the treated mice.

KDM1A/CoREST complex [1] = molecular target: T1, KDM1A/CoREST complex (Homo sapiens, UniProt O60341); assay: Anti-KDM1A immunoprecipitation and Western blot in SET2 cells; assay type: cell-based; set-up: endogenous in cells; host or cells: SET2 cells
Experimental: […] Cells were harvested, washed twice with cold PBS and resuspended in 5 volumes of Buffer A (10 mM Tris-HCL (pH 8.0), 1.5 mM MgCl2, 10 mM KCl, 0.5 mM DTT, supplemented with protease inhibitors). After 15 minutes on ice, cells were spun down at 1000×g for 15 minutes and the supernatant was removed as the cytosolic fraction. Pellets were resuspended in Buffer C (20 mM Tris-HCl, (pH 7.9), 25% glycerol, 0.42 M NaCl, 1.5 mM MgCl2, 0.2 mM EDTA, 0.5 mM DTT and protease inhibitors) and sonicated briefly (3 seconds, 40% output). After incubating on ice for 30 minutes, cells were spun at 20,000×g for 20 minutes to pellet the insoluble material. The supernatant was removed (soluble nuclear fraction) and combined with the cytosolic fraction to reconstitute a whole cell lysate with a final NaCl concentration of <200 mM. […] Co-precipitated proteins were detected by western blotting using the indicated primary antibodies. […] Bound antibodies were detected with goat anti-rabbit IgG antibody and goat anti-mouse IgG, conjugated with DyLight 800 AND DyLight 680, respectively. […]

KDM1A/CoREST complex [2] = molecular target: T1, KDM1A/CoREST complex; assay: Anti-KDM1A immunoprecipitation and Western blot in HEL cells; assay type: cell-based; set-up: endogenous in cells; settings: overnight at 1 μM
Experimental: For immunoprecipitation, 3 μg of anti-KDM1A antibody (Bethyl Labs, Montgomery, Tex.) or rabbit IgG (Cell Signaling, Danvers, Mass.) were added to 0.5 mg of reconstituted whole cell lysate and placed on a rotator at 4° C. overnight. To isolate the immune complexes, 50 μL of pre-washed Protein G magnetic beads (Dynabeads, Invitrogen) equilibrated in A+C buffer (1:1) were added and the samples were rotated for 4° C. for an additional 2 hours. Beads were captured using a magnetic stand (DynaMag, Invitrogen) and washed 3 times with buffer A+C. The beads were re-suspended in 25 μl 2×SDS loading buffer and resolved on 4-12% SDS-PAGE gels. Co-precipitated proteins were detected by western blotting using the indicated primary antibodies. […] Here, HEL cells were treated with the KDM1A inhibitor RN-1 overnight at 1 μM concentration. Cell lysates were prepared and an immunoprecipitation was carried out using an anti-KDM1A antibody and rabbit IgG as a control. SDS-PAGE and Western blotting was performed on the input material and immunoprecipitated material. Blot was probed with an anti-GFI1B, anti-KDM1A, and anti-vinculin antibodies. Bound antibodies were detected with goat anti-rabbit IgG antibody and goat anti-mouse IgG, conjugated with DyLight 800 AND DyLight 680, respectively.

| SMILES | Growth of SET-2 tumor xenografts (tumor size) (SET2 xenografts) | GFI1B association with the KDM1A/CoREST complex (co-immunoprecipitation) (KDM1A/CoREST complex [1]; SET2 cells, 1 μM RN-1 for 24 hours, vs DMSO) | CoREST retention in the KDM1A complex (co-immunoprecipitation) (KDM1A/CoREST complex [1]; SET-2 cells, overnight at 1 μM) | GFI1B association with the KDM1A/CoREST complex (co-immunoprecipitation) (KDM1A/CoREST complex [2]) |
| --- | --- | --- | --- | --- |
| O=C(O)c1ccc(CN2CCC(CN[C@@H]3C[C@H]3c3ccccc3)CC2)cc1 [GSK2879552] | reduced the growth of SET-2 tumor xenografts | – | – | – |
| CN1CCN(C(=O)CN[C@@H]2CC2c2ccc(OCc3ccccc3)cc2)CC1 (stereo partly shown) [RN-1] | – | displacement of GFI1B from the KDM1A/CoREST complex | CoREST is retained in the KDM1A complex | displacement of GFI1B from the KDM1A/CoREST complex |

Source: patent US20200069677A1, “MARKERS FOR PERSONALIZED CANCER TREATMENT WITH LSD1 INHIBITORS” (Constellation Pharmaceuticals, Inc., priority 2016, published 2020)
